Experimental data from patent US12121552B2, “Pseudomonas chlororaphis species and its use in the control of fish diseases caused by bacteria and fungi” (T3 Bioscience, Inc., priority 2022, dated 2024).
≈ marks a conversion by molar mass, not a printed value.

Columns and labels:
Test in all cases: MIC/MLC broth dilution assay against fish pathogens
Format in all cases: cell-based
Streptococcus agalactiae = settings: (TSAY/TSBY)/28° C./48 h; for MIC: Streptococcus agalactiae, read-out: Minimum Inhibitory Concentration
[1] = system: Renibacterium salmoninarum; settings: KDM-2/15° C./14 days, read-out: Minimum Inhibitory Concentration
Tenacibaculum maritimum = settings: (MA/MB)/15° C./8 days
Flavobacterium columnare = settings: TYES/20° C./2 days, read-out: Minimum Inhibitory Concentration
Streptococcus iniae = settings: (TSAY/TSBY)/28° C./48 h; for MIC: Streptococcus iniae, read-out: Minimum Inhibitory Concentration
Piscirickettsia salmonis = settings: L15/15° C./21 days, read-out: Minimum Inhibitory Concentration
Vibrio parahaemolyticus = settings: (TSA2/TSB2)/37° C./24 h, read-out: Minimum Inhibitory Concentration
Aeromonas salmonicida = settings: (TSA/TSB)/20° C./24 h, read-out: Minimum Inhibitory Concentration

SMILES | MIC (Streptococcus agalactiae) [mg/L] | MIC [1] [mg/L] | Minimum Lethal Concentration (Tenacibaculum maritimum) [µg/mL] | MIC (Tenacibaculum maritimum; Tenacibaculum maritimum, read-out: Minimum Inhibitory Concentration) [mg/L] | MIC (Flavobacterium columnare) [mg/L] | MIC (Streptococcus iniae) [mg/L] | MIC (Piscirickettsia salmonis) [mg/L] | Minimum Lethal Concentration (Streptococcus agalactiae) [µg/mL] | MIC (Vibrio parahaemolyticus) [mg/L] | MIC (Aeromonas salmonicida) [mg/L] | Minimum Lethal Concentration (Streptococcus iniae) [µg/mL]
CCCCCCc1c(O)cc(CCCCC)cc1O (single isomer, unassigned) [Peak 2] | 6.25 (≈ 23.6 µM) | 50 (≈ 189 µM) | 200 | 3.13 (≈ 11.8 µM) | 0.5 (≈ 1.89 µM) | 0.39 (≈ 1.47 µM) | 12.5 (≈ 47.3 µM) | – | – | – | –
CCCCCCCc1cc(O)c(CCCCCC)c(O)c1 (single isomer, unassigned) [Peak 3] | 6.25 (≈ 21.4 µM) | 50 (≈ 171 µM) | – | – | 0.39 (≈ 1.33 µM) | 0.39 (≈ 1.33 µM) | 12.5 (≈ 42.7 µM) | 50 | 1.56 (≈ 5.33 µM) | 100 (≈ 342 µM) | 25
